According to US7851436B2, “Inhibition of migration and induction of cell death by the type II collagen amino propeptides” (Washington University, priority 2007, dated 2010):
“Also recorded” adds a separate entry of the source.

What was measured:
siRNA-treated Ch-1 cells = experiment: Cell death in integrin αV siRNA-treated Ch-1 cells; assay type: cell-based, human; details: 0.8 μM, serum-free medium, 24 hrs
Description: (§1) Detection of Cell Death. Cells were cultured to confluence in a 24-well plate pre-coated with type I collagen, fibronectin (Sigma), and ECM Matrigel (Becton Dickinson). Proteins in serum-free medium were added to the cells. Cells were monitored by light microscopy and images were digitally photographed using a Q capture Retiga 2000R camera. Quantification of cells remaining in the well was performed by washing with PBS for three times, fixing with 4% paraformaldehyde. The cells per field (×400) were counted for three field per well (3 wells per measurement). The mean number and standard deviation (SD) were calculated.
SiRNA Interference. Ch-1 cells were grown to 60-80% confluence in 6 well plates in Opti-Mem medium (Invitrogen) without antibiotics and serum. A reported method (6) is used in the design of siRNAs, sense and antisense oligonucleotides. The final concentration of oligonucleotides was 0.05 μM. Transfection was performed using a lipofectamine kit (InVitrogen). Half of the wells were stimulated with 200 ng/ml PMA (phorbol 12-myristate 13-acetate) after 4 hours incubation with oligonucleotides. Total RNA was collected via the TriZol method after incubation for 44 hours. 1 μg of total RNA was reverse transcribed with Superscript RT II in a 40 μl volume. […] Bands were quantified with Image Quant software.

Ch-1 cells = experiment: Migration of Ch-1 cells; assay type: cell-based, human; details: data not shown
HeLa 229 cells = experiment: Cell survival assay in HeLa 229 cells; assay type: cell-based, human
Description: Cell Culture. Human Chondrosarcoma cell line (Ch-1) was isolated from a portion of chondrosarcoma tumor. […] HUVEC cells were a gift from Dr. William Frazier (Washington University) and were cultured in M199 Earle's medium with 10 units/ml of penicillin, 5 μg/ml streptomycin and 0.25 μg/ml Fungizone supplemented with 10% FBS, 0.1 mg/ml L-glutamine, 25 mM Hepes, 16 units/ml of heparin (Sigma) and 0.1 mg/ml endothelial cell mitogen (Biochemical Technologies).
as §1

[1] = tested on: FGF induced mouse cornea neovascularization; experiment: In vivo mouse cornea angiogenesis inhibition assay; details: Balb/c mice, osmotic pumps, one week
Description: FGF containing PolyHEMA pellets were implanted into the corneas of 6 week old Balb/c mice. The mice received osmotic pumps containing a number of proteins to measure the ability of each protein to inhibit angiogenesis. After one week the mice were sacrificed and angiogenesis was quantified based on the total vessel length seen from fluorescently labeled vessels.
To prepare a FGF Pellet (67 ng/quarter pellet) PBS (1 μl of 1×PBS pH 7.4), sucralfate (Sigma, #S0652)(1 μL of a 100 mg/mL suspension of sucralfate), Human FGF-2 (Peprotech, 100-1 8B)(1 μL of 3.2 mg/mL FGF-2), and poly-hema (poly(2-hydroxyethyl methacrylate), Sigma, P3932)(3 μL of 250 mg/mL poly-hema) were combined. Pellets (0.5 μL) were prepped on parafilm, air dried for 10-20 mins, and divided into quarters. The resulting pellets were sealed with parafilm and stored at −20° C. until needed.
To implant the pellet, a mouse was injected with Ketamine/Xylazine (about 0.1 mg KX/gram mouse, IP injection). […]
After one week the mice are injected with same amount of Ketamine given during the implantation procedure. […] Any remaining tissues will show up when the cornea is mounted and viewed with fluorescence. […] Angiogenesis is measured by total vessel outgrowth based on the fluorescently stained blood vessels using Metamorph software (FIG. 9).

rings of rat aorta = experiment: Aortic ring formation assay
Description: FIG. 8 depicts a graph and photograph showing rat aortic ring formation. Angiogenesis was assayed by culturing rings of rat aorta in three-dimensional collagen gel. The culture was performed at 37° C. in a humidified environment for a week in the presence FGF and mPIIBNP or PIIBNP (0.1 to 3 mM). The microvessel outgrowth was examined and visualized every second day with an Olympus microscope. The pictures were taken before the measurement of the microvessels. (FIG. 8A) The length of microvessels was measured and total length for each measurement was added (FIG. 8B). PIIBNP inhibited aortic ring formation, with an IC50 of less than 0.1 μM.
Aortic Ring Formation Assay. Angiogenesis was assayed by culturing rings of rat aorta in three-dimensional collagen gels as reported. The cultures were kept at 37° C. in a humidified environment for a week in the presence of FGF and GST or PIIBNP (0.1-10 μM). The microvessel outgrowth was examined every second day with an Olympus microscope. The length of microvessels was measured and total length for each measurement was added.

With “PIIBNP: Recombinant human Type IIB procollagen NH2-propeptide (exons 3-8, lacking exon 2), expressed as GST fusion protein” the “induction of cell death in αV siRNA-treated Ch-1 cells” value (siRNA-treated Ch-1 cells) was “not able to induce cell death; also recorded: did not induce cell death”, the “inhibition of migration of Ch-1 cells” value (Ch-1 cells) was “can inhibit migration” and the cell death (HeLa 229 cells; HeLa 229 cells, FIG. 4M) was greater than 80%. The survival (HeLa 229 cells; HeLa cells) was 20%, the “inhibition of angiogenesis (cornea neovascularization)” value ([1]; FGF pellets) was “inhibits angiogenesis in vivo; also recorded: suppression of neovascularization” and the toxicity [1] was “no apparent toxicity”. The “inhibition of endothelial outgrowth from rat aorta” value (rings of rat aorta; freshly isolated rat aorta) was “able to inhibit endothelial outgrowth in a concentration dependent manner” and the IC50 (rings of rat aorta; three-dimensional collagen gel, FGF, a week, read-out: IC50 of inhibition of aortic ring formation) was less than 100 nM.
